From US20120122860A1, “SOLID FORMS OF SULFONAMIDES AND AMINO ACIDS” (Plexxikon, Inc., priority 2009, published 2012)

Columns and labels:
A-Raf = biological target: T1, A-Raf (Homo sapiens, UniProt P10398); assay: Kinase activity assay, A-Raf
T1 sequence (P10398 1-606): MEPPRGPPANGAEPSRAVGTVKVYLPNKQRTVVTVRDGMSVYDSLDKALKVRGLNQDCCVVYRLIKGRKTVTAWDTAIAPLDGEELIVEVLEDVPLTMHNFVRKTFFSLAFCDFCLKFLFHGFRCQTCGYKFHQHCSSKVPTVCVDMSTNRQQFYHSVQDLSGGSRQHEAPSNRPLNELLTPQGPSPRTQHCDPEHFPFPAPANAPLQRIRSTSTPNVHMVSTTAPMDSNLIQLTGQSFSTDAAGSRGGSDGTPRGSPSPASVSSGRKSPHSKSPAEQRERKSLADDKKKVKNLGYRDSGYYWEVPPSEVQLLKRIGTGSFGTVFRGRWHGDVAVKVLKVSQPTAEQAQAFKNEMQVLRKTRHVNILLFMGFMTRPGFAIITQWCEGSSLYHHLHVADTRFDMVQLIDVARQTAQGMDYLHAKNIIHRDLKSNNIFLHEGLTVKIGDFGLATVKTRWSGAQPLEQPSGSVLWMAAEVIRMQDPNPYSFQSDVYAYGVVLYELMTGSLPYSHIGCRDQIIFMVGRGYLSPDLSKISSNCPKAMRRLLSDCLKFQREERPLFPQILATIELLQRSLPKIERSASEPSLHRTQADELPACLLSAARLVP

B-Raf V600E = B-Raf V600E (Homo sapiens, UniProt P15056, V600E); assay: Kinase activity assay, B-Raf V600E; format: biochemical; settings: read-out: activity toward kinase B-Raf V600E, IC50
B-Raf = B-Raf (Homo sapiens, UniProt P15056); assay: Kinase activity assay, B-Raf; format: biochemical; settings: read-out: activity toward kinase B-Raf, IC50
Src = Src (Homo sapiens, UniProt P12931); assay: Kinase activity assay, Src
Kit = Kit (Homo sapiens, UniProt P10721); assay: Kinase activity assay, Kit
Kdr = Kdr (Homo sapiens, UniProt P35968); assay: Kinase activity assay, Kdr
C-Raf = C-Raf (Homo sapiens, UniProt P04049); assay: Kinase activity assay, C-Raf
Fms = Fms (Homo sapiens, UniProt P07333); assay: Kinase activity assay, Fms

Measured: IC50

Sequence of C-Raf (P04049 whole entry): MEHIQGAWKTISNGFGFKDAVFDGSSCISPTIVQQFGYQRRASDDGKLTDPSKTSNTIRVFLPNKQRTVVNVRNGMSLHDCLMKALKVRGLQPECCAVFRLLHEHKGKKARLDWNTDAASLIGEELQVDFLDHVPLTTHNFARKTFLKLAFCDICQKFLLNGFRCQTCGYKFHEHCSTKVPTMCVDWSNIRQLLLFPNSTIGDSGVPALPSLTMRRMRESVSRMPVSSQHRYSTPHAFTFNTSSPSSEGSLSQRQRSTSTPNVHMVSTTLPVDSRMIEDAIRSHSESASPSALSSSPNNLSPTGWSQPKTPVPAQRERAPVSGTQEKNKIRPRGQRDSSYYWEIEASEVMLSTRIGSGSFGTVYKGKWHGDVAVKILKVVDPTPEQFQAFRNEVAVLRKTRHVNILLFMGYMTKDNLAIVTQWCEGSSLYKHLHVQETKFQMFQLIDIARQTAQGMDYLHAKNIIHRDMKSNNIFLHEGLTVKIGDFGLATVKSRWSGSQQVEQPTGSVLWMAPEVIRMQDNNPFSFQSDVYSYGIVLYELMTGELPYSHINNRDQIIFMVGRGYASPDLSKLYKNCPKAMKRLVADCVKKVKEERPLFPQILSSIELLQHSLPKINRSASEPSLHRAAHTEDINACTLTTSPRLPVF
Sequence of Fms (P07333 20-972): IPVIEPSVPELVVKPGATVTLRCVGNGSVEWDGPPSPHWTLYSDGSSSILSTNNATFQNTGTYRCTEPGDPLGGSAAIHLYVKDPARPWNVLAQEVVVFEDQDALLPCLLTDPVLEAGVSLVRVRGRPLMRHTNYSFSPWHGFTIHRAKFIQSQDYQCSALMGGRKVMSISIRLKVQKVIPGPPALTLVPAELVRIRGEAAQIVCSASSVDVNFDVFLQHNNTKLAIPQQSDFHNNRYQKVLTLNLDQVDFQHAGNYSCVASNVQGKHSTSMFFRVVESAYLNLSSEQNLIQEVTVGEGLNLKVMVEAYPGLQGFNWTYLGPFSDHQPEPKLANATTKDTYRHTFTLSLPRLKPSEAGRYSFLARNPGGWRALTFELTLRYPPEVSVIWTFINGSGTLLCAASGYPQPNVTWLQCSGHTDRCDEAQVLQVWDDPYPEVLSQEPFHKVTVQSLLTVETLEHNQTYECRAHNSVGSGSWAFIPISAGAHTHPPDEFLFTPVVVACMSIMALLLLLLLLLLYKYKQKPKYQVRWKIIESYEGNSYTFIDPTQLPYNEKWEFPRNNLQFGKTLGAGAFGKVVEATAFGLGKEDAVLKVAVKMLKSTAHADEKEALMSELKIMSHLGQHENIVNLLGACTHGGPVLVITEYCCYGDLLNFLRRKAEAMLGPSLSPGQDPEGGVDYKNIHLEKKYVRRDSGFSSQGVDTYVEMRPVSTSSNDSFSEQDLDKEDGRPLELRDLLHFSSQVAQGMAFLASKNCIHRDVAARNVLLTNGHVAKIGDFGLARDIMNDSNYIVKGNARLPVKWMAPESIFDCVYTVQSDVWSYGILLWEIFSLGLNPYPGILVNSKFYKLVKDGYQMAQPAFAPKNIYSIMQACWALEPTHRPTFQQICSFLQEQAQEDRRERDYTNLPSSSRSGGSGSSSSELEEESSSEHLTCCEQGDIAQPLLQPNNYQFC
Sequence of Src (P12931 whole entry): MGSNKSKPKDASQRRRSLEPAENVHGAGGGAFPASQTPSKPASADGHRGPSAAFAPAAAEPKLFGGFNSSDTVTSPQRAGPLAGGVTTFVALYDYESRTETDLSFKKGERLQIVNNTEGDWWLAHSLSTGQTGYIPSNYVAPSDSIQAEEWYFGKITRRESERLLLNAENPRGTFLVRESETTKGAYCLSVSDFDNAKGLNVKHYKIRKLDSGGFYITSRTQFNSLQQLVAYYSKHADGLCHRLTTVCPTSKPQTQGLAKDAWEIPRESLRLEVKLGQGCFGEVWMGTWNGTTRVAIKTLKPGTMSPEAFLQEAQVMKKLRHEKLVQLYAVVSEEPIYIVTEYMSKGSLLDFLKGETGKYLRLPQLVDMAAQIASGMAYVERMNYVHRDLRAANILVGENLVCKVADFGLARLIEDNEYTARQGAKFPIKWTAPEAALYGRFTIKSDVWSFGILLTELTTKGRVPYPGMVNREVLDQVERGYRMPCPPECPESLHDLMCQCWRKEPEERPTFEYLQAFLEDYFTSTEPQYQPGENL
Sequence of B-Raf (P15056 whole entry): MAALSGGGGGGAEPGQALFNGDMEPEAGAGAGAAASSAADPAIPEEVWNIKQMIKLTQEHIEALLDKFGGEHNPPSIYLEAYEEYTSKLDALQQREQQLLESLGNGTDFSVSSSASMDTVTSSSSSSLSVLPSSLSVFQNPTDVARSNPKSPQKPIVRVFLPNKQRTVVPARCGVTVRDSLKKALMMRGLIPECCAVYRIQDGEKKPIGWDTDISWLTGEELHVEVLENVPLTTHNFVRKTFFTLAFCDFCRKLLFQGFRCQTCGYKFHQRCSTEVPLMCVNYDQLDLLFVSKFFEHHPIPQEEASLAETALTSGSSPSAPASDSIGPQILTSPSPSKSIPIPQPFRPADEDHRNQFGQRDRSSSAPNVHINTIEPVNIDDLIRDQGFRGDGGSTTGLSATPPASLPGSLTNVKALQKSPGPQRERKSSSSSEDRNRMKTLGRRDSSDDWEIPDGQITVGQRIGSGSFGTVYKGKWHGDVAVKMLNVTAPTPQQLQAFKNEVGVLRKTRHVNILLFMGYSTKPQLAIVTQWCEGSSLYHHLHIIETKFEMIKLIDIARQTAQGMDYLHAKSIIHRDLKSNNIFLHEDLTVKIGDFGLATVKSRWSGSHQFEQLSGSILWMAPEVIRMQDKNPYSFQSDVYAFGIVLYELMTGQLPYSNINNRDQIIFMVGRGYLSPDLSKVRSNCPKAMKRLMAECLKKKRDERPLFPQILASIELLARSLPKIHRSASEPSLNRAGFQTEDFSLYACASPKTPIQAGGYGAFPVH
Sequence of Kdr (P35968 20-1356): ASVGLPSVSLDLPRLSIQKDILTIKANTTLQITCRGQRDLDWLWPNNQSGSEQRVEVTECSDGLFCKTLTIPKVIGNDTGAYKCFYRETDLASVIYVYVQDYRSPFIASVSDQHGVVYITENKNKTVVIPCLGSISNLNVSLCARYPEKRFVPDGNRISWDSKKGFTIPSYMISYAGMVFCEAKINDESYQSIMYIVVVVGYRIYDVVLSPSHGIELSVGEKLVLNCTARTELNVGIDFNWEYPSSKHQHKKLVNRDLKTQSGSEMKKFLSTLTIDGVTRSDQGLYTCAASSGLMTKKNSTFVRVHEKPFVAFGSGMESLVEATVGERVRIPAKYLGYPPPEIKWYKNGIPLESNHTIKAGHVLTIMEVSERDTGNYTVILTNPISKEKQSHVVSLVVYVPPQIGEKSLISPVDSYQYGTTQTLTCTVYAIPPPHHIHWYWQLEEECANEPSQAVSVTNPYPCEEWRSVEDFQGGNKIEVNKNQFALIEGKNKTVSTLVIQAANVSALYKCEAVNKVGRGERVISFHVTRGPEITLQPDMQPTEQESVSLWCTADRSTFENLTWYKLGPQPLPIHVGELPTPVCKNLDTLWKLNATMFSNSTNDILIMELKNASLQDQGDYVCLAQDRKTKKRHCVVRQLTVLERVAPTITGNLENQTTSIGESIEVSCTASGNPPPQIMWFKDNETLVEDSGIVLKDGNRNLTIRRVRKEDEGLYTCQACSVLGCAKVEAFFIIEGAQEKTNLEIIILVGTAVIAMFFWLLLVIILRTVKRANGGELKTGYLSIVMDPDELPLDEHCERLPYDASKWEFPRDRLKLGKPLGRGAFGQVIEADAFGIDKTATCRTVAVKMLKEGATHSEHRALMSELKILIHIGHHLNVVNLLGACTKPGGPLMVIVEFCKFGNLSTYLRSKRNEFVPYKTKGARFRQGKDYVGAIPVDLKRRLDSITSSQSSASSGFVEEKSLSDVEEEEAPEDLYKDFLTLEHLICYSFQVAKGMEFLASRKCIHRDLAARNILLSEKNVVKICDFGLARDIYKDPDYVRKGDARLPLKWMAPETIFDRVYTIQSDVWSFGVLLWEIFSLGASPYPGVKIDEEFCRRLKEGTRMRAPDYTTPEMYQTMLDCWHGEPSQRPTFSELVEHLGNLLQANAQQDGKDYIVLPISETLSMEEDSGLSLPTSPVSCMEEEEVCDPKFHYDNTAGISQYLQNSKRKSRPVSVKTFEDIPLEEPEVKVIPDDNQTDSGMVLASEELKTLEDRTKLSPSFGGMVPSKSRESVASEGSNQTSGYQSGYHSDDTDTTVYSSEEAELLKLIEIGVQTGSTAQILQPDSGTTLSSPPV
Sequence of B-Raf V600E (P15056 whole entry V600E): as the sequence (P15056 whole entry) above, with V600E counted along it

N#Cc1ccnc2[nH]cc(C(=O)c3c(F)ccc(NS(=O)(=O)c4c(F)cccc4F)c3F)c12 [P-2037, N-[3-(4-Cyano-1H-pyrrolo[2,3-b]pyridine-3-carbonyl)-2,4-difluoro-phenyl]-2,6-difluoro-benzenesulfonamide]
not listed: Fms
≤ 10 µM: all other assays above

N#Cc1ccnc2[nH]cc(C(=O)c3c(F)ccc(NS(=O)(=O)c4ccc(F)cc4F)c3F)c12 [P-2038, N-[3-(4-Cyano-1H-pyrrolo[2,3-b]pyridine-3-carbonyl)-2,4-difluoro-phenyl]-2,4-difluoro-benzenesulfonamide]
not listed: Fms
≤ 10 µM: all other assays above

O=C(c1cc(NS(=O)(=O)c2ccc(Cl)cc2)ccc1F)c1c[nH]c2ncccc12 [P-2113, 4-Chloro-N-[4-fluoro-3-(1H-pyrrolo[2,3-b]pyridine-3-carbonyl)-phenyl]-benzenesulfonamide]
≤ 10 µM: A-Raf | B-Raf | Fms | Kit | Kdr

O=C(c1cc(NS(=O)(=O)c2cccc(C(F)(F)F)c2)ccc1F)c1c[nH]c2ncccc12 [P-2115, N-[4-Fluoro-3-(1H-pyrrolo[2,3-b]pyridine-3-carbonyl)-phenyl]-3-trifluoromethyl-benzenesulfonamide]
≤ 10 µM: A-Raf | Fms | Kit | Kdr

O=C(c1cc(NS(=O)(=O)c2ccc(OC(F)(F)F)cc2)ccc1F)c1c[nH]c2ncccc12 [P-2116, N-[4-Fluoro-3-(1H-pyrrolo[2,3-b]pyridine-3-carbonyl)-phenyl]-4-trifluoromethoxy-benzenesulfonamide]
≤ 10 µM: A-Raf | B-Raf | Fms | Kit | C-Raf

O=C(c1cc(NS(=O)(=O)c2cccc(OC(F)(F)F)c2)ccc1F)c1c[nH]c2ncccc12 [P-2117, N-[4-Fluoro-3-(1H-pyrrolo[2,3-b]pyridine-3-carbonyl)-phenyl]-3-trifluoromethoxy-benzenesulfonamide]
not listed: B-Raf V600E | Src
≤ 10 µM: all other assays above

CCCS(=O)(=O)Nc1ccc(F)c(C(=O)c2c[nH]c3nccc(C#N)c23)c1F [P-2209, Propane-1-sulfonic acid [3-(4-cyano-1H-pyrrolo[2,3-b]pyridine-3-carbonyl)-2,4-difluoro-phenyl]-amide]
not listed: Fms
≤ 10 µM: all other assays above

CCCS(=O)(=O)Nc1ccc(F)c(C(=O)c2c[nH]c3ncc(C(=O)NOC)cc23)c1F [P-2238, 3-[2,6-Difluoro-3-(propane-1-sulfonylamino)-benzoyl]-1H-pyrrolo[2,3-b]pyridine-5-carboxylic acid methoxy-amide]
not listed: Fms
≤ 10 µM: all other assays above

CC(C)CS(=O)(=O)Nc1ccc(F)c(C(=O)c2c[nH]c3ncc(-c4ccc(Cl)cc4)cc23)c1F [P-2297, 2-Methyl-propane-1-sulfonic acid {3-[5-(4-chloro-phenyl)-1H-pyrrolo[2,3-b]pyridine-3-carbonyl]-2,4-difluoro-phenyl}-amide]
≤ 10 µM: A-Raf | Fms | Kit | C-Raf

COc1cnc2[nH]cc(C(=O)c3c(F)ccc(NS(=O)(=O)CC(C)C)c3F)c2c1 [P-2303, 2-Methyl-propane-1-sulfonic acid [2,4-difluoro-3-(5-methoxy-1H-pyrrolo[2,3-b]pyridine-3-carbonyl)-phenyl]-amide]
not listed: Fms
≤ 10 µM: all other assays above

Cc1cnc2[nH]cc(C(=O)c3c(F)ccc(NS(=O)(=O)CC(C)C)c3F)c2c1 [P-2305, 2-Methyl-propane-1-sulfonic acid [2,4-difluoro-3-(5-methyl-1H-pyrrolo[2,3-b]pyridine-3-carbonyl)-phenyl]-amide]
not listed: Fms
≤ 10 µM: all other assays above

N#Cc1ccnc2[nH]cc(C(=O)c3c(F)ccc(NS(=O)(=O)CC(F)(F)F)c3F)c12 [P-2341, 2,2,2-Trifluoro-ethanesulfonic acid [3-(4-cyano-1H-pyrrolo[2,3-b]pyridine-3-carbonyl)-2,4-difluoro-phenyl]-amide]
not listed: Kdr | Fms
≤ 10 µM: all other assays above

N#Cc1ccnc2[nH]cc(C(=O)c3c(F)ccc(NS(=O)(=O)C4CCCCC4)c3F)c12 [P-2369, Cyclohexanesulfonic acid [3-(4-cyano-1H-pyrrolo[2,3-b]pyridine-3-carbonyl)-2,4-difluoro-phenyl]-amide]
not listed: Kdr | Fms
≤ 10 µM: all other assays above

COc1cnc2[nH]cc(C(=O)c3c(F)ccc(NS(=O)(=O)N4CCCC4)c3F)c2c1 [P-2374, Pyrrolidine-1-sulfonic acid [2,4-difluoro-3-(5-methoxy-1H-pyrrolo[2,3-b]pyridine-3-carbonyl)-phenyl]-amide]
not listed: Fms
≤ 10 µM: all other assays above

N#Cc1cnc2[nH]cc(C(=O)c3c(F)ccc(NS(=O)(=O)N4CCOCC4)c3F)c2c1 [P-2393, Morpholine-4-sulfonic acid [3-(5-cyano-1H-pyrrolo[2,3-b]pyridine-3-carbonyl)-2,4-difluoro-phenyl]-amide]
not listed: Kdr | Fms
≤ 10 µM: all other assays above

O=C(c1c(F)ccc(NS(=O)(=O)N2CCCC2)c1F)c1c[nH]c2nccc(Cl)c12 [P-2398, Pyrrolidine-1-sulfonic acid [3-(4-chloro-1H-pyrrolo[2,3-b]pyridine-3-carbonyl)-2,4-difluoro-phenyl]-amide]
not listed: Fms
≤ 10 µM: all other assays above

CCCS(=O)(=O)Nc1ccc(F)c(C(=O)c2c[nH]c3ncccc23)c1 [P-2437, Propane-1-sulfonic acid [4-fluoro-3-(1H-pyrrolo[2,3-b]pyridine-3-carbonyl)-phenyl]-amide]
≤ 10 µM: A-Raf | B-Raf V600E | Fms | Kdr
